{"source": "patent US20220160712A1", "about": "“METHODS OF TREATING RHEUMATOID ARTHRITIS AND FOR PREDICTING THE RESPONSE TO METHOTREXATE” (CHAN ZUCKERBERG BIOHUB, INC., priority 2020, published 2022)", "key": {"[1]": {"tested_on": "B. theta and C. asparagiforme", "assay": "Untargeted metabolomics of in vitro cultures", "type": "cell-based, Bacteroides thetaiotaomicron; Clostridium asparagiforme", "protocol": "As described in the in vitro bacterial growth studies, 48-hour overnight cultures were grown in an anaerobic chamber in liquid BHI+for the following isolates: Bacteroidetes thetaiotaomicron and Clostridium asparagiforme. Each subculture was diluted down to an OD600 of 0.08-0.1, which was then further diluted 100-fold, and then used to inoculate a 96-well 2-ml deep well plate with 100 μg/ml MTX (n=6 replicates per isolate) (Sigma, Cat #M9929) or DMSO (n=2 replicates per isolate). After 24 hours, aliquots were removed, centrifuged on a tabletop centrifuge at 4° C. for 5 minutes at ˜2000 rcf, and supernatant was prepared for extraction and untargeted LC-MS as described.\nExtraction was done in 96 well plates. In brief, 60 μL of the supernatant from the 96 well culture plate was added to 120 μL of pre-cooled methanol/acetonitrile (1:1, v/v) in a non-sterile 96 well plate. The samples were then incubated at −20° C. for 1 hour. After incubation, samples were mixed at 4° C. at 650 rpm using small block tube shaker. The plates were then centrifuged at 3000 rpm for 10 minutes. After centrifugation, using multi-channel pipette, 80 μL of supernatant from each well was transferred to non-sterile 96 well polypropylene plate and then sealed with pre-slit silicone mat. A 1:1:1 mix of LC-MS grade H2O, LC-MS grade acetonitrile and LC-MS grade methanol was used as blank.\nSamples (5 μl) were separated by hydrophilic interaction chromatography HPLC using a Vanquish UHPLC system (Thermo Fisher Scientific, Waltham, MA) with a Waters (Milford, MA) Acquity UPLC BEH Amide Column (2.1×100 mm×1.7 μm particle size) maintained at 65° C. and a 17 minute gradient, at a flow rate of 400 μl/min. […]\nThe raw data were converted into mzML format using ProteoWizard v3.0. Converted HILIC files were then analyzed using MS-DIAL v4.16 for deconvolution, peak detection, alignment, and identification (Parameters file can be provided upon request). […]"}, "[2]": {"assay": "Predicted concentration of MTX in the gastrointestinal (GI) tract", "set-up": "species or system human", "settings": "for predicted concentration of MTX in the proximal GI tract: RA oral dose 25 mg divided by 250 ml", "protocol": "The predicted concentration of MTX in the proximal GI tract was estimated by taking the oral dose used for rheumatoid arthritis (25 mg) and dividing it by 250 ml Dahlgren, D., and Lennernas, H. (2019), Pharmaceutics 11, 411; Dressman, J. B., et al., (1985), J Pharm Sci 74, 588-589; Shekhawat, P.B., and Pokharkar, V. B. (2017), Acta Pharm Sin B 7, 260-280), giving a concentration of 100 μg/ml or 220 μM. Further refinement of this estimate was done based on variations in the absorption of oral MTX in the proximal intestine (Grim, J., et al., (2003), Clin Pharmacokinet 42, 139-151), where it is estimated that 10-70% of the dose is not absorbed and instead delivered to the distal GI tract in RA patients. Thus, the estimated range of MTX in the GI tract was calculated to be 10-70 μg/ml with 100 μg/ml being the highest predicted concentration (prior to absorption by the host). When considering the doses used for cancer therapy (50 mg/day of oral MTX), the predicted range is 20-140 μg/ml with 200 μg/ml being the highest dose. MTX can also be given intravenously (IV) or intrathecally for the treatment of cancer (Treon, S. P., and Chabner, B. A. (1996), Clin Chem 42, 1322-1329), and is typically given at much higher doses, including as high as 800-1000 mg IV over 24 hours for the treatment of cancers such as lymphoma or acute lymphoblastic leukemia. Assuming that 30% of this is enterohepatically circulated et al., (1982), Cancer Res 42, 1279-1282), then between 240 and 300 mg would enter the GI tract, and the predicted concentration in the GI tract would be between 960-1200 μg/ml."}, "[3]": {"settings": "MTX 100 μg/ml, 24 hours, padj<0.01, two-factor ANOVA with BH correction"}, "[4]": {"settings": "cancer therapy, 50 mg/day oral MTX"}}, "note": "Several values for one entry are separate records, joined by “and”; a condition that tells them apart may be missing. Identical values can stand only once.", "data": [{"compound": "CN(Cc1cnc2nc(N)nc(N)c2n1)c1ccc(C(=O)N[C@@H](CCC(=O)O)C(=O)O)cc1", "note": "[MTX, methotrexate]", "values": [{"measurement": "levels of AMP, adenine, hypoxanthine and guanine relative to vehicle control", "setting": "[1]; C. asparagiforme, 24 hours of treatment, AMP decreased, the rest increased, Wilcoxon rank sum", "result": "these differences were not statistically significant"}, {"measurement": "number of metabolic features that changed similarly in the two isolates", "setting": "[1]; [3]", "result": 418}, {"measurement": "number of metabolic features that differed by species", "setting": "[1]; [3]", "result": 220}, {"measurement": "predicted concentration in the GI tract", "setting": "[2]; 800-1000 mg IV over 24 hours, assuming 30% enterohepatically circulated", "result": "960 to 1200", "unit": "µg/mL"}, {"measurement": "estimated concentration of MTX in the proximal gastrointestinal (GI) tract", "setting": "[2]; Example 2", "result": "22-220 μM and 10-100 μg/ml"}, {"measurement": "estimated range of MTX in the GI tract", "setting": "[2]; RA dose, 10-70% of the dose not absorbed", "result": "10 to 70", "unit": "µg/mL"}, {"measurement": "predicted concentration of MTX in the proximal GI tract", "setting": "[2]", "result": 220, "unit": "µM"}, {"measurement": "predicted concentration of MTX in the proximal GI tract", "setting": "[2]; highest, prior to absorption", "result": 100, "unit": "µg/mL"}, {"measurement": "highest predicted concentration of MTX in the GI tract", "setting": "[2]; [4]", "result": 200, "unit": "µg/mL"}, {"measurement": "predicted range of MTX in the GI tract", "setting": "[2]; [4]", "result": "20 to 140", "unit": "µg/mL"}]}]}
